In the OligoGym collection:
HELM strings list units from the 5' end as sugar, base in round brackets, then linkage (d deoxyribose, r ribose, m 2'-O-methyl, p phosphodiester). Strings are as the collection lists them; they lack the last nucleoside at the 3' end of the tested compound. [moe] = 2'-O-(2-methoxyethyl) (MOE); [sp] = phosphorothioate linkage; [m5C] = 5-methylcytosine

Biological target: PRNP
Assay: mouse, dose not given
Settings: ASO

Q: Which 3 h FOB score does the source give for “RNA1{[moe](T)[sp].[moe](T)p.[moe](T)p.[moe](G)p.[moe](G)[sp].d(A)[sp].d(G)[sp].d(G)[sp].d([m5C])[sp].d(T)[sp].d([m5C])[sp].d(T)[sp].d(T)[sp].d(T)[sp].d(T)[sp].[moe](A)p.[moe](G)p.[moe](G)[sp].[moe](T)}$$$$ (last 3' nucleoside missing)” here?
A: 4 score 0-7

Q: With “RNA1{[moe](T)[sp].[moe](T)p.[moe](T)p.[moe](G)p.[moe]([m5C])[sp].d(T)[sp].d(G)[sp].d(T)[sp].d(T)[sp].d(A)[sp].d(T)[sp].d(A)[sp].d([m5C])[sp].d(T)[sp].d(T)[sp].[moe](T)p.[moe](T)p.[moe](A)[sp].[moe]([m5C])}$$$$ (last 3' nucleoside missing)” as the substance, how does the 3 h FOB score read?
A: 1.25 score 0-7

Q: With “RNA1{[moe](T)[sp].[moe](T)p.[moe]([m5C])p.[moe](A)p.[moe](G)[sp].d(A)[sp].d(T)[sp].d(T)[sp].d(T)[sp].d(T)[sp].d(T)[sp].d([m5C])[sp].d(A)[sp].d([m5C])[sp].d(A)[sp].[moe](T)p.[moe](A)p.[moe](T)[sp].[moe](G)}$$$$ (last 3' nucleoside missing)” as the substance, how does the 3 h FOB score read?
A: 1 score 0-7

Q: Which 3 h FOB score does the source give for “RNA1{[moe](T)[sp].[moe](T)p.[moe]([m5C])p.[moe]([m5C])p.[moe](A)[sp].d(G)[sp].d([m5C])[sp].d(T)[sp].d(T)[sp].d([m5C])[sp].d(T)[sp].d(T)[sp].d(A)[sp].d(A)[sp].d(T)[sp].[moe](G)p.[moe]([m5C])p.[moe](A)[sp].[moe](T)}$$$$ (last 3' nucleoside missing)” here?
A: 0 score 0-7

Q: Which 3 h FOB score does the source give for “RNA1{[moe](T)[sp].[moe]([m5C])p.[moe](A)p.[moe](G)p.[moe](T)[sp].d(G)[sp].d(T)[sp].d(T)[sp].d(G)[sp].d(T)[sp].d(G)[sp].d(A)[sp].d([m5C])[sp].d(A)[sp].d(A)[sp].[moe](T)p.[moe](A)p.[moe](T)[sp].[moe](T)}$$$$ (last 3' nucleoside missing)” here?
A: 4.25 score 0-7

Q: With “RNA1{[moe](T)[sp].[moe]([m5C])p.[moe](A)p.[moe](G)p.[moe](T)[sp].d(T)[sp].d(T)[sp].d(T)[sp].d(T)[sp].d([m5C])[sp].d([m5C])[sp].d([m5C])[sp].d([m5C])[sp].[moe](A)p.[moe]([m5C])p.[moe](A)[sp].[moe](T)}$$$$ (last 3' nucleoside missing)” as the substance, how does the 3 h FOB score read?
A: 0 score 0-7

Q: With “RNA1{[moe](T)[sp].[moe]([m5C])p.[moe](A)p.[moe](G)p.[moe](T)p.d(T)[sp].d(T)[sp].d(T)[sp].d(T)[sp].d([m5C])[sp].d([m5C])[sp].d([m5C])[sp].d([m5C])[sp].d(A)[sp].[moe]([m5C])p.[moe](A)p.[moe](T)[sp].[moe](A)}$$$$ (last 3' nucleoside missing)” as the substance, how does the 3 h FOB score read?
A: 0 score 0-7

Q: Which 3 h FOB score does the source give for “RNA1{[moe](T)[sp].[moe]([m5C])p.[moe](A)p.[moe](T)p.[moe](A)[sp].d(T)[sp].d(T)[sp].d(T)[sp].d([m5C])[sp].d(T)[sp].d(G)[sp].d(T)[sp].d([m5C])[sp].d(A)[sp].d(T)[sp].[moe]([m5C])p.[moe](T)p.[moe]([m5C])[sp].[moe]([m5C])}$$$$ (last 3' nucleoside missing)” here?
A: 3 score 0-7

Q: “RNA1{[moe](T)[sp].[moe]([m5C])p.[moe](A)p.[moe](T)p.[moe](A)p.d(A)[sp].d(T)[sp].d(T)[sp].d(T)[sp].d(T)[sp].d([m5C])[sp].d(T)[sp].d(T)[sp].d(A)[sp].[moe](G)p.[moe]([m5C])p.[moe](T)[sp].[moe](A)}$$$$ (last 3' nucleoside missing)” was tested. Which 3 h FOB score did it give?
A: 0 score 0-7

Q: “RNA1{[moe](T)[sp].[moe]([m5C])p.[moe](A)p.[moe](T)p.[moe]([m5C])[sp].d(A)[sp].d(T)[sp].d(T)[sp].d(T)[sp].d(T)[sp].d(G)[sp].d([m5C])[sp].d([m5C])[sp].d(A)[sp].d(T)[sp].[moe](T)p.[moe](T)p.[moe](A)[sp].[moe](T)}$$$$ (last 3' nucleoside missing)” was tested. Which 3 h FOB score did it give?
A: 6 score 0-7

Q: Which 3 h FOB score does the source give for “RNA1{[moe](T)[sp].[moe]([m5C])p.[moe](A)p.[moe]([m5C])p.[moe](T)[sp].d(G)[sp].d(T)[sp].d(G)[sp].d(A)[sp].d(A)[sp].d(T)[sp].d(A)[sp].d(T)[sp].d(G)[sp].d(T)[sp].[moe]([m5C])p.[moe]([m5C])p.[moe](T)[sp].[moe]([m5C])}$$$$ (last 3' nucleoside missing)” here?
A: 5 score 0-7

Q: For “RNA1{[moe](T)[sp].[moe]([m5C])p.[moe](G)p.[moe]([m5C])p.[moe]([m5C])[sp].d(A)[sp].d(T)[sp].d(A)[sp].d(A)[sp].d(T)[sp].d(G)[sp].d(A)[sp].d([m5C])[sp].d(T)[sp].d(G)[sp].[moe]([m5C])p.[moe](T)p.[moe]([m5C])[sp].[moe](T)}$$$$ (last 3' nucleoside missing)”, which 3 h FOB score is on record?
A: 4.5 score 0-7

Q: With “RNA1{[moe](T)[sp].[moe]([m5C])p.[moe](T)p.[moe](A)p.[moe](T)[sp].d(G)[sp].d(T)[sp].d(T)[sp].d(T)[sp].d(T)[sp].d([m5C])[sp].d([m5C])[sp].d(A)[sp].[moe](G)p.[moe](T)p.[moe](G)[sp].[moe]([m5C])}$$$$ (last 3' nucleoside missing)” as the substance, how does the 3 h FOB score read?
A: 0 score 0-7

Q: With “RNA1{[moe](T)[sp].[moe]([m5C])p.[moe](T)p.[moe](A)p.[moe](T)[sp].d(G)[sp].d(T)[sp].d(T)[sp].d(T)[sp].d(T)[sp].d([m5C])[sp].d([m5C])[sp].d(A)[sp].d(G)[sp].d(T)[sp].[moe](G)p.[moe]([m5C])p.[moe]([m5C])[sp].[moe]([m5C])}$$$$ (last 3' nucleoside missing)” as the substance, how does the 3 h FOB score read?
A: 0 score 0-7

Q: With “RNA1{[moe](T)[sp].[moe]([m5C])p.[moe](T)p.[moe](A)p.[moe](T)p.d(G)[sp].d(T)[sp].d(T)[sp].d(T)[sp].d(T)[sp].d([m5C])[sp].d([m5C])[sp].d(A)[sp].d(G)[sp].[moe](T)[sp].[moe](G)p.[moe]([m5C])p.[moe]([m5C])}$$$$ (last 3' nucleoside missing)” as the substance, how does the 3 h FOB score read?
A: 0 score 0-7

Q: “RNA1{[moe](T)[sp].[moe]([m5C])p.[moe](T)p.[moe](A)p.[moe](T)p.d(G)[sp].d(T)[sp].d(T)[sp].d(T)[sp].d(T)[sp].d([m5C])[sp].d([m5C])[sp].d(A)[sp].d(G)[sp].[moe](T)p.[moe](G)p.[moe]([m5C])[sp].[moe]([m5C])}$$$$ (last 3' nucleoside missing)” was tested. Which 3 h FOB score did it give?
A: 0 score 0-7

Q: Which 3 h FOB score does the source give for “RNA1{[moe](T)[sp].[moe]([m5C])p.[moe](T)p.[moe](A)p.d(T)[sp].d(G)[sp].d(T)[sp].d(T)[sp].d(T)[sp].d(T)[sp].d([m5C])[sp].d([m5C])[sp].d(A)[sp].d(G)[sp].[moe](T)p.[moe](G)p.[moe]([m5C])p.[moe]([m5C])[sp].[moe]([m5C])}$$$$ (last 3' nucleoside missing)” here?
A: 1 score 0-7

Q: For “RNA1{[moe](T)[sp].[moe]([m5C])p.[moe](T)p.[moe](G)p.[moe](A)[sp].d(G)[sp].d(A)[sp].d(T)[sp].d(T)[sp].d(T)[sp].d(G)[sp].d(T)[sp].d(T)[sp].d(T)[sp].d(T)[sp].[moe](A)p.[moe](G)p.[moe]([m5C])[sp].[moe]([m5C])}$$$$ (last 3' nucleoside missing)”, which 3 h FOB score is on record?
A: 3 score 0-7

Q: How did the 3 h FOB score turn out when “RNA1{[moe](T)[sp].[moe]([m5C])p.[moe](T)p.[moe](T)p.[moe](A)[sp].d(G)[sp].d(A)[sp].d(T)[sp].d(T)[sp].d(T)[sp].d(T)[sp].d(T)[sp].d(G)[sp].d(G)[sp].d(A)[sp].[moe]([m5C])p.[moe](G)p.[moe](G)[sp].[moe](G)}$$$$ (last 3' nucleoside missing)” was run?
A: 4.5 score 0-7

Q: With “RNA1{[moe](T)[sp].[moe]([m5C])p.[moe](T)p.[moe](T)p.[moe](T)[sp].d(T)[sp].d([m5C])[sp].d(T)[sp].d(T)[sp].d(T)[sp].d(G)[sp].d([m5C])[sp].d(A)[sp].d([m5C])[sp].d(A)[sp].[moe]([m5C])p.[moe](T)p.[moe](G)[sp].[moe](A)}$$$$ (last 3' nucleoside missing)” as the substance, how does the 3 h FOB score read?
A: 3 score 0-7

Q: For “RNA1{[moe](T)[sp].[moe]([m5C])p.[moe](T)p.[moe]([m5C])p.[moe](A)[sp].d(G)[sp].d(G)[sp].d(T)[sp].d([m5C])[sp].d(T)[sp].d(A)[sp].d([m5C])[sp].d(T)[sp].d([m5C])[sp].d(T)[sp].[moe](A)p.[moe](T)p.[moe](G)[sp].[moe](T)}$$$$ (last 3' nucleoside missing)”, which 3 h FOB score is on record?
A: 1.25 score 0-7

Q: For “RNA1{[moe](T)[sp].[moe]([m5C])p.[moe](T)p.[moe]([m5C])p.[moe]([m5C])[sp].d(T)[sp].d(T)[sp].d(G)[sp].d(A)[sp].d(A)[sp].d(T)[sp].d(T)[sp].d(T)[sp].d([m5C])[sp].d(T)[sp].[moe](T)p.[moe](T)p.[moe]([m5C])[sp].[moe](A)}$$$$ (last 3' nucleoside missing)”, which 3 h FOB score is on record?
A: 0 score 0-7

Q: With “RNA1{[moe](T)[sp].[moe]([m5C])p.[moe]([m5C])p.[moe](A)p.[moe](T)[sp].d(T)[sp].d(T)[sp].d(T)[sp].d([m5C])[sp].d(T)[sp].d(G)[sp].d(T)[sp].d(G)[sp].d([m5C])[sp].d(T)[sp].[moe](T)p.[moe](T)p.[moe](T)[sp].[moe]([m5C])}$$$$ (last 3' nucleoside missing)” as the substance, how does the 3 h FOB score read?
A: 3.75 score 0-7

Q: Which 3 h FOB score does the source give for “RNA1{[moe]([m5C])[sp].[moe](A)p.[moe](A)p.[moe](G)p.[moe]([m5C])[sp].d(A)[sp].d(G)[sp].d(T)[sp].d(T)[sp].d([m5C])[sp].d(T)[sp].d(T)[sp].d(T)[sp].d(T)[sp].d([m5C])[sp].[moe](T)p.[moe](T)p.[moe](T)[sp].[moe](G)}$$$$ (last 3' nucleoside missing)” here?
A: 2.25 score 0-7

Q: For “RNA1{[moe]([m5C])[sp].[moe](A)p.[moe](A)p.[moe](T)p.[moe](T)[sp].d(G)[sp].d(T)[sp].d(T)[sp].d(T)[sp].d(T)[sp].d(T)[sp].d([m5C])[sp].d(T)[sp].d([m5C])[sp].d(T)[sp].[moe]([m5C])p.[moe](T)p.[moe]([m5C])[sp].[moe](T)}$$$$ (last 3' nucleoside missing)”, which 3 h FOB score is on record?
A: 0 score 0-7

Q: For “RNA1{[moe]([m5C])[sp].[moe](A)p.[moe](G)p.[moe](G)p.[moe](G)[sp].d(A)[sp].d(A)[sp].d(T)[sp].d(A)[sp].d(A)[sp].d(T)[sp].d(T)[sp].d(T)[sp].d(T)[sp].d(A)[sp].[moe]([m5C])p.[moe](T)p.[moe](T)[sp].[moe](T)}$$$$ (last 3' nucleoside missing)”, which 3 h FOB score is on record?
A: 0 score 0-7
